Test results from US20030139442A1, “Vasoactive agents” (priority 2002, published 2003).

Target: T1, human GPR14 (Homo sapiens, UniProt Q9UKP6)
T1 construct: expressed in transfected cells
T1 sequence (Q9UKP6 1-389): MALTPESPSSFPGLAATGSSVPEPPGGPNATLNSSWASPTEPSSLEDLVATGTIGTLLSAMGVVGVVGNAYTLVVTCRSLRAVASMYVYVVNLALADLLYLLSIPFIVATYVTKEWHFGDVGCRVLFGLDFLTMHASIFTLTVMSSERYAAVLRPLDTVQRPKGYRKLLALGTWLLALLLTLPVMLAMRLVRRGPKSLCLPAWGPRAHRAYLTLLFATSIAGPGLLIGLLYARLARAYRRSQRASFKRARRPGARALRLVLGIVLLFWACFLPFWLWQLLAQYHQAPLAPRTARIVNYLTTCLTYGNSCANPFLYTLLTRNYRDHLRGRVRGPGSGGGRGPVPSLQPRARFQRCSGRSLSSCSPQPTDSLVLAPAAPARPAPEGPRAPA
Assay: Inhibition of binding of [125I]-labeled human urotensin II to GPR14 using human GPR14-expressing CHO cell fraction
Details: 1 nM [125I]-labeled human urotensin II; human GPR14-expressing CHO cell membrane fraction; 25° C., 3 hours; read-out: Inhibitory concentration (concentration showing 50% inhibition of human GPR14 binding activity)
Description: To 1×10^8 CHO/GPR14 cells were added 10 ml of homogenate buffer (10 mM NaHCO3, 5 mM EDTA, 0.5 mM PMSF, 1 μg/ml pepstatin, 4 μg/ml E64, 20μg/ml leupeptin), and disrupted using Polytron (12,000 rpm, 1 minute). Cell debris solution was centrifuged at 1,000 g for 15 minutes to obtain a supernatant. The supernatant was then […] (in Beckman type 30 rotor, 30,000 rpm, 1 hour), and the resultant precipitant was collected as human GPR14-expressing CHO cell fraction.
Isotope-labeled human urotensin II to be used in experiments for testing inhibition of binding was prepared as described below. 5 μg of human urotensin II (available from Peptide Institute, Inc.) was dissolved in 25 μl of 0.4M sodium acetate (pH 5.6). […]
Human GPR14-expressing CHO cell fraction was diluted in a membrane diluting buffer (20 mM phosphate buffer (pH7.3), 150 mM NaCl, 5 mM MgCl2, 0.1% BSA, 0.05% CHAPS, 0.5 mM PMSF, 0.1 μg/ml Pepstatin, 20 μg/ml Leupeptin, 4 μg/ml E-64) to prepare a solution of cell membrane fraction (protein concentration:3 μg/ml) for assay. […] Next, the filter was washed three times with membrane diluting buffer (0.2 ml), added with 20 μl of Microscinti 20 (Packard), and determined for radioactivity in Topcount (Packard). Specific-binding is calculated by subtracting non-specific binding from the total binding. […]

Structure (SMILES): Nc1c2c(nc3ccc(-c4ccsc4)cc13)N(Cc1ccccc1)CC2 [compound 3]
- IC50: 0.033 µM
